Source: the CheMixHub ionic liquid set

Experiment: xn = mol fraction of the nth substance listed

CC[N+](C)(CC)CCOC.F[B-](F)(F)F + CCCC[n+]1ccn(C)c1C.F[B-](F)(F)F
100 kPa
Conditions	electrical conductivity [S/m]
313.15 K, x1 = 0.4	0.289
313.15 K, x1 = 0.7	0.302
318.15 K, x1 = 0.2	0.318
318.15 K, x1 = 0.4	0.361
318.15 K, x1 = 0.5	0.369
318.15 K, x1 = 0.8	0.41
318.15 K, x1 = 1	0.437
328.15 K, x1 = 0.1	0.492
328.15 K, x1 = 0.2	0.502
328.15 K, x1 = 0.5	0.555
328.15 K, x1 = 0.9	0.682
333.15 K, x1 = 0.5	0.685
338.15 K, x1 = 0.4	0.772
343.15 K, x1 = 0.4	0.913
348.15 K, x1 = 0.6	1.14
353.15 K, x1 = 0.2	1.18
353.15 K, x1 = 0.3	1.21
353.15 K, x1 = 0.4	1.24
353.15 K, x1 = 0.5	1.27
353.15 K, x1 = 0.7	1.38
353.15 K, x1 = 1	1.62
358.15 K, x1 = 0.3	1.39
358.15 K, x1 = 0.4	1.42
358.15 K, x1 = 0.8	1.61
363.15 K, x1 = 0.5	1.67
363.15 K, x1 = 1	2.1

CCC[N+]1(C)CCCCC1.O=S(=O)([N-]S(=O)(=O)C(F)(F)F)C(F)(F)F + CCC[N+](C)(C)C.O=S(=O)([N-]S(=O)(=O)C(F)(F)F)C(F)(F)F
101.3 kPa, x2 = 0
Conditions	viscosity [mPa·s]
293.15 K	199
298.15 K	147
303.15 K	112
313.15 K	69
338.15 K	26.6
343.15 K	22.9

CC(=O)[O-].Cn1cc[n+](C)c1 + CCO
293.15 K, 101.3 kPa
Conditions	electrical conductivity [S/m]
x2 = 0	0.275
x2 = 0.0694	0.335
x2 = 0.1341	0.401
x2 = 0.2695	0.559
x2 = 0.4097	0.873
x2 = 0.5071	1.197
x2 = 0.6815	1.821
x2 = 0.7393	1.903
x2 = 0.7685	1.86
x2 = 0.7896	1.683
x2 = 0.8843	0.86
x2 = 0.9267	0.491
x2 = 0.9487	0.302
x2 = 0.9595	0.213
x2 = 0.9709	0.131

CC[n+]1ccn(C)c1.[I-] + CCO
Conditions	electrical conductivity [S/m]
298.15 K, 100 kPa, x1 = 0.4385	2.22

CC[N+](C)(CC)CCOC.F[B-](F)(F)F + CC[N+](C)(CC)CCOC.O=S(=O)([N-]S(=O)(=O)C(F)(F)F)C(F)(F)F
100 kPa
Conditions	electrical conductivity [S/m]
293.15 K, x2 = 0.1	0.112
298.15 K, x2 = 0.3	0.19
298.15 K, x2 = 0.7	0.227
298.15 K, x2 = 0.9	0.267
303.15 K, x2 = 0.9	0.341
308.15 K, x2 = 0.3	0.325
308.15 K, x2 = 0.5	0.356
313.15 K, x2 = 0.2	0.388
313.15 K, x2 = 0.3	0.409
313.15 K, x2 = 0.8	0.495
318.15 K, x2 = 0.4	0.525
318.15 K, x2 = 0.7	0.573
323.15 K, x2 = 0.2	0.595
323.15 K, x2 = 0.3	0.612
328.15 K, x2 = 0.2	0.722
328.15 K, x2 = 0.6	0.806
333.15 K, x2 = 0.1	0.892
333.15 K, x2 = 0.5	0.911
333.15 K, x2 = 0.7	0.948
338.15 K, x2 = 0.7	1.1
343.15 K, x2 = 0.2	1.19
343.15 K, x2 = 0.3	1.19
343.15 K, x2 = 0.8	1.25

CC1(C)CC(O)CC(C)(C)N1[O] + CC[N+](CC)(CC)CC.[Cl-] + O
323.15 K, 100 kPa, frequency 0.001 MHz
Conditions	electrical conductivity [S/m]
x1 = 0.091, x2 = 0.182	1.2
x1 = 0.167, x2 = 0.167	0.61
x1 = 0.2, x2 = 0	0.019
x1 = 0.286, x2 = 0.143	0.16

CC[NH+](CC)CC.O=[N+]([O-])[O-] + CC[NH3+].O=[N+]([O-])[O-]
101 kPa, frequency 0.00293 MHz
Conditions	electrical conductivity [S/m]
293.15 K, x1 = 0.149	1.28
293.15 K, x1 = 0.1997	1.15
293.15 K, x1 = 0.25	0.97
293.15 K, x1 = 0.2993	0.86
293.15 K, x1 = 0.3475	0.79
298.15 K, x1 = 0.149	1.52
303.15 K, x1 = 0.3475	1.12
313.15 K, x1 = 0.3995	1.38
313.15 K, x1 = 0.4472	1.23
323.15 K, x1 = 0.0999	3.31
323.15 K, x1 = 0.3995	1.8

101 kPa
Conditions	viscosity [mPa·s]
293.15 K, x1 = 0.149	55.3
293.15 K, x1 = 0.1997	62.8
293.15 K, x1 = 0.25	69.1
293.15 K, x1 = 0.2993	76.9
293.15 K, x1 = 0.3475	83.5
298.15 K, x1 = 0.149	45.3
303.15 K, x1 = 0.3475	54.8
313.15 K, x1 = 0.3995	40.8
313.15 K, x1 = 0.4472	44.4
323.15 K, x1 = 0.0999	19.7
323.15 K, x1 = 0.3995	29.1
323.15 K, x1 = 0.5003	33.1
328.15 K, x1 = 0.149	18.1
328.15 K, x1 = 0.3995	25.1
328.15 K, x1 = 0.5003	28.3
328.15 K, x1 = 0.5485	27.4
333.15 K, x1 = 0.1997	17.5
333.15 K, x1 = 0.5003	24.7
333.15 K, x1 = 0.5485	23.9
338.15 K, x1 = 0.2993	17.3
338.15 K, x1 = 0.4472	20.3
343.15 K, x1 = 0.0499	11.6
343.15 K, x1 = 0.2993	15.3
348.15 K, x1 = 0.0999	11.1
348.15 K, x1 = 0.2993	13.7
348.15 K, x1 = 0.4472	15.7
353.15 K, x1 = 0.2993	12.4

CNC=O + CC[n+]1ccn(C)c1.F[B-](F)(F)F
298 K, 101 kPa
Conditions	electrical conductivity [S/m]
x1 = 0.21	2.08
x1 = 0.47	2.73
x1 = 0.66	2.95

CC[n+]1ccn(C)c1.C[C@H](N)C(=O)[O-] + CC[n+]1ccn(C)c1.N#C[C-](C#N)C#N
101 kPa, x2 = 0
Conditions	viscosity [mPa·s]
308.15 K	137.5
313.15 K	103.5

CCCCn1cc[n+](CCOCC[n+]2ccn(CCCC)c2)c1.N#C[N-]C#N.N#C[N-]C#N + CC[n+]1ccn(C)c1.N#C[N-]C#N + O=S(=O)([N-]S(=O)(=O)C(F)(F)F)C(F)(F)F.[Li+]
100 kPa, x1 = 0.2561, x2 = 0.6541
Conditions	electrical conductivity [S/m]
298 K	0.527
303 K	0.737
313 K	0.921
323 K	1.35
333 K	1.74
343 K	2.13

CC[S+](CC)CCOCCOCC[S+](CC)CC.N#C[N-]C#N.N#C[N-]C#N + CC[n+]1ccn(C)c1.N#C[N-]C#N + O=S(=O)([N-]S(=O)(=O)C(F)(F)F)C(F)(F)F.[Li+]
100 kPa, x1 = 0.2666, x2 = 0.6449
Conditions	electrical conductivity [S/m]
298 K	0.501
303 K	0.604
313 K	0.841
323 K	1.13
333 K	1.44
343 K	1.72

O=S(=O)([O-])C(F)(F)F.[Li+] + CC[n+]1ccn(C)c1.O=S(=O)([N-]S(=O)(=O)C(F)(F)F)C(F)(F)F
electrical conductivity [S/m], 101 kPa
Conditions	288.15 K	298.15 K	333.15 K
x1 = 0.01919	0.57	0.819	2
x2 = 0.9274	–	0.672	1.71
x2 = 0.9587	0.515	0.766	1.93

O=S(=O)([O-])C(F)(F)F.[Li+] + CC[n+]1ccn(C)c1.O=S(=O)([O-])C(F)(F)F
electrical conductivity [S/m], 101 kPa
Conditions	x1 = 0.007746	x1 = 0.01537	x2 = 0.9697	x2 = 0.9746
288.15 K	0.625	0.568	–	0.535
298.15 K	0.904	0.837	0.775	0.792
333.15 K	2.31	2.14	2.02	2.05

CC[n+]1ccn(C)c1.O=S(=O)([O-])C(F)(F)F + CN(C)C=O
100 kPa
Conditions	viscosity [mPa·s]
298.15 K, x2 = 0.1933	28.54
303.15 K, x2 = 0.406	12.55
308.15 K, x2 = 0.406	10.91
313.15 K, x2 = 0.5976	4.5
313.15 K, x2 = 0.7981	2.03
318.15 K, x2 = 0.0917	19.61
318.15 K, x2 = 0.1933	15.46
318.15 K, x2 = 0.2995	11.68
318.15 K, x2 = 0.6947	2.6
323.15 K, x2 = 0.6947	2.42

CC[n+]1ccn(C)c1.O=S(=O)([O-])C(F)(F)F + CN(C)C=O + OCCO
viscosity [mPa·s], 100 kPa
Conditions	298.15 K	303.15 K	308.15 K	313.15 K	318.15 K	323.15 K
x2 = 0.0208, x3 = 0.1868	29.3	24.8	21.15	18.23	15.83	13.8
x2 = 0.0306, x3 = 0.198	27.9	23.6	20.16	17.39	15.11	13.18
x2 = 0.0398, x3 = 0.2206	25.8	21.9	18.69	16.15	14.06	12.27
x2 = 0.0679, x3 = 0.2281	23.5	20	17.13	14.83	12.93	11.29
x2 = 0.0847, x3 = 0.2475	21.3	18.2	15.61	13.54	11.83	10.34
x2 = 0.1005, x3 = 0.2658	19.4	16.5	14.24	12.39	10.85	9.48
x2 = 0.1248, x3 = 0.2717	17.7	15.2	13.09	11.41	10.01	8.76
x2 = 0.1637, x3 = 0.2744	15.6	13.4	11.59	10.14	8.92	7.81
x2 = 0.1852, x3 = 0.2798	14.3	12.3	10.67	9.35	8.25	7.23
x2 = 0.2057, x3 = 0.2849	13.1	11.3	9.84	8.64	7.64	6.7
x2 = 0.2567, x3 = 0.2666	11.6	10.1	8.83	7.78	6.9	6.06
x2 = 0.3179, x3 = 0.2469	9.96	8.69	7.63	6.76	6.02	5.29
x2 = 0.3633, x3 = 0.2306	8.7	7.63	6.74	6	5.34	4.85
x2 = 0.4128, x3 = 0.2106	7.83	6.89	6.11	5.45	4.89	4.31
x2 = 0.469, x3 = 0.1967	6.48	5.75	5.13	4.61	4.16	3.68
x2 = 0.5074, x3 = 0.1828	5.85	5.22	4.68	4.22	3.85	3.19
x2 = 0.5624, x3 = 0.1668	4.75	4.27	3.86	3.51	3.19	2.84
x2 = 0.6135, x3 = 0.152	3.92	3.55	3.24	2.96	2.71	2.43
x2 = 0.6611, x3 = 0.1382	3.32	3.02	2.76	2.53	2.32	2.15
x2 = 0.7126, x3 = 0.1243	2.61	2.41	2.23	2.07	1.92	1.74
x2 = 0.7536, x3 = 0.1124	2.33	2.14	1.98	1.83	1.7	1.58
x2 = 0.7982, x3 = 0.1005	1.83	1.7	1.59	1.49	1.4	1.29
x2 = 0.8449, x3 = 0.0889	1.53	1.42	1.33	1.24	1.17	1.09
x2 = 0.8948, x3 = 0.0712	1.22	1.14	1.07	1.01	0.95	0.89

CCc1n(S(=O)(=O)O)cc[n+]1S(=O)(=O)O.O=C([O-])C(F)(F)F + CO
electrical conductivity [S/m], 101 kPa
Conditions	283.15 K	293.15 K	298.15 K	313.15 K
x1 = 0.0052	–	–	1.51	–
x1 = 0.0255	–	–	3.08	–
x1 = 0.02551	3.57	3.28	3.08	2.7
